{"source": "patent US12570975B2", "about": "“Composition for diagnosis or treatment of a condition associated with increased activity of EIF4E comprising an EIF4E inhibitor” (SoVarGen Co., Ltd., priority 2019, dated 2026)", "key": {"[1]": {"test_system": "FMCD and epilepsy animal models (mTOR-p.C1483Y, mTOR-p.L2427P)", "format": "in vivo, mouse", "procedure": "(§1) Behaviors were recorded and analyzed using EthoVision XT (Noldus).\n(§2) Experiments were performed on the FMCD and epilepsy animal models (mTOR-p.C1483Y, mTOR-p.L2427P) of Example 7-1 and the control normal animal models (mTOR-WT). The same sheIF4E as that described in Example 2 was used. Week 2 after sheIF4E injection, the handling was performed in the animals. Week 3 after sheIF4E injection, the animals were subjected to the behavioral tests.\n(§3) The epilepsy animal models were subjected to the substantially same behavioral abnormality assay as in Example 6. The results are depicted in FIGS. 28 and 29.\n(§4) Briefly, ASO #77 was administered by ICV injection to the FMCD and epilepsy animal models were generated with the pCIG-mTOR mutant-IRES-EGFP of Example 1. ASO #77 was evaluated for therapeutic potential for neuropsychiatric disorder accompanying the FMCD epilepsy animal models in the substantially same manner as in Example 6."}, "[2]": {"test_system": "FMCD and epilepsy animal models (mTOR-p.C1483Y, mTOR-p.L2427P)", "experiment": "3-Chamber test (social interaction), FMCD epilepsy models", "format": "in vivo, mouse", "conditions": "ASO-eIF4E models compared to ASO-control models", "procedure": "The 3-Chamber test measures social interaction and preference for social novelty. This apparatus consisted of three chambers with dimensions of 12×20×26 cm for the center chamber and dimensions of 14×20×26 cm for the opposite side chambers. Each of the opposite side chambers included a plastic cage (11 cm in diameter, 2.15 cm in height) for an object or stranger mouse in a corner. This experiment consisted of three sessions of habituation (10 min), exploring object/mouse (10 min), and exploring familiar/new mouse (10 min). In the second session, a WT stranger mouse was randomly placed in a plastic cage while the opposite plastic cage was empty. The mouse was allowed to freely explore the whole apparatus. The time spent in each chamber was measured and then used for the subsequent social interaction test. In the last session, a new WT stranger was placed in the empty plastic cage.\nExperiments were performed on the FMCD and epilepsy animal models (mTOR-p.C1483Y, mTOR-p.L2427P) of Example 7-1 and the control normal animal models (mTOR-WT). […]\nas §4"}, "C57BL/6J mice [3]": {"test_system": "C57BL/6J mice", "conditions": "mouse, in vivo"}, "eIF4E mRNA": {"test_system": "eIF4E mRNA", "experiment": "ASO screening by real-time PCR (eIF4E mRNA, HEK293T)", "format": "cell-based, human", "conditions": "relative to ASO #75", "procedure": "In an alternative approach for screening the designed ASO candidates, the human cell line HEK293T cells (human) were cultured on 96-well culture plates for 24 hours and then transfected with ASO candidates with the aid of iN-fect™ transfection reagent (INTRON, 15081). Twenty four hours after transfection, the cells were harvested and subjected to lysis and RNA extraction using SuperPrep™ II Cell Lysis & RT Kit reagent (Toyobo, SCQ-401). From the RNA thus obtained, cDNA was synthesized by reverse transcription PCR. Real-time PCR was performed in CXF384 Touch™ Real-Time System (Bio-Rad) with SYBR® green real-time PCR master mix (Toyobo, QPK-201). Forward and reverse PCR primer sequences for eIF4E and GAPDH are as follows:\nThe real-time PCR conditions in the CXF384_Touch™ Real-Time System were as follows: 95° C. for 1 min, then 95° C. for 15 sec, 59.5° C. for 20 sec, and 72° C. for 30 sec for 39 cycles. Each sample was analyzed in triplicates. […] FIGS. 16b and 16c are graphs in which relative eIF4E expression levels are quantitatively expressed as ratios compared to the GAPDH expression level in HEK293T cells treated with ASO candidates."}, "C57BL/6J mice [4]": {"test_system": "C57BL/6J mice", "conditions": "mouse, in vivo", "remark": "listed apart in the source"}, "C57BL/6J mice [5]": {"test_system": "C57BL/6J mice", "conditions": "male or female mice injected with ASO"}, "[6]": {"test_system": "FMCD and epilepsy animal models (mTOR-p.C1483Y, mTOR-p.L2427P)", "experiment": "Light & dark box test, FMCD epilepsy models", "format": "in vivo, mouse", "conditions": "ASO-eIF4E models compared to ASO-control models", "procedure": "as §1, §2, §3, §4"}, "male mice": {"test_system": "male mice", "experiment": "Repeated dose toxicity assay by subcutaneous injection", "format": "in vivo, mouse", "conditions": "subcutaneous 100 mg/kg, seven times within a month", "procedure": "ASO #16, #21, #27, #35, #75, #77, and #89 selected in Example 4 were each assayed for repeated dose toxicity by subcutaneous injection.\nRepeated dose toxicity assay of the […] was conducted by Biotoxtech Co., Ltd. In repeated dose toxicity assay, each ASO sequence was subcutaneously injected at a dose of 100 mg/kg to groups of four male mice seven times in total within a month (days 1, 3, 5, 7, 14, 21, and 28). Two days after the last injection, histopathologic observations were made."}, "C57BL/6J mice [7]": {"test_system": "C57BL/6J mice", "conditions": "in vivo"}, "eIF4E": {"test_system": "eIF4E", "experiment": "Immunofluorescence of eIF4E in brain cells after ASO injection", "format": "in vivo, mouse", "conditions": "week 4-5 after ICV injection, FMCD models", "procedure": "Week 4-5 after intracerebroventricular injection of ASO into the animal models established using pCIG-mTOR mutant-IRES-EGFP vector of Example 1, the brain was removed, fixed, sectioned, and immunostained.\nImmunostaining with antibodies against ADK, CREB1, IRSp53, and eIF4E and Imaging with fluorescence were conducted in the same manner as in Example 2."}}}
{"substance": "ASO #77: eIF4E-targeting antisense oligonucleotide of SEQ ID NO: 77, 2′-MOE gapmer, all phosphorothioate linkages (antisense GATCCTTCACCAATGTTACA; all phosphorothioate, sugars by position and methylation of C not given here; 2'-MOE gapmer)", "values": [{"measurement": "time spent in center (index of anxiety)", "setting": "[1]; ASO-eIF4E models compared to ASO-control models", "result": "increased"}, {"measurement": "dyskinesia (behavior test)", "setting": "[1]; mouse, in vivo", "result": "no dyskinesia"}, {"measurement": "time spent in sniffing zone (social ability)", "setting": "[2]", "result": "increased"}, {"measurement": "dyskinesia (behavior test)", "setting": "C57BL/6J mice [3]", "result": "no dyskinesia"}, {"measurement": "time spent in center (index of anxiety)", "setting": "C57BL/6J mice [3]", "result": "not changed"}, {"measurement": "Expression level of eIF4E(%) compared to ASO#75", "setting": "eIF4E mRNA", "result": 121, "unit": "%"}, {"measurement": "time spent in center (residence time within the light box)", "setting": "C57BL/6J mice [4]", "result": "not changed"}, {"measurement": "% sucrose preference", "setting": "C57BL/6J mice [5]", "result": "not changed"}, {"measurement": "time spent in center (residence time within the light box)", "setting": "[6]", "result": "increased"}, {"measurement": "dead or moribund animals", "setting": "male mice", "result": "No dead or moribund animals"}, {"measurement": "time spent to interact with the stranger mouse (index of sociality and depression)", "setting": "C57BL/6J mice [7]", "result": "not changed"}, {"measurement": "eIF4E expression in brain cells (immunofluorescence)", "setting": "eIF4E", "result": "reduction of eIF4E expression"}]}
